From ChEMBL document CHEMBL1255475, “Mutant prevention concentrations of four carbapenems against gram-negative rods” (2010)
Values after ≈ are worked out from the molar mass of the structure shown.

What was measured:
[1] = system: Pseudomonas aeruginosa; experiment: Ratio of mutant prevention concentration to minimum Inhibitory concentration for Pseudomonas aeruginosa P369; type: functional
[2] = system: Pseudomonas aeruginosa; experiment: Ratio of mutant prevention concentration to minimum Inhibitory concentration for Pseudomonas aeruginosa P320; type: functional
[3] = system: Pseudomonas aeruginosa; experiment: Ratio of mutant prevention concentration to minimum Inhibitory concentration for Pseudomonas aeruginosa P323; type: functional
[4] = system: Pseudomonas aeruginosa; experiment: Ratio of mutant prevention concentration to minimum Inhibitory concentration for Pseudomonas aeruginosa P334; type: functional
[5] = system: Pseudomonas aeruginosa; experiment: Ratio of mutant prevention concentration to minimum Inhibitory concentration for Pseudomonas aeruginosa P338; type: functional
[6] = system: Pseudomonas aeruginosa; experiment: Ratio of mutant prevention concentration to minimum Inhibitory concentration for Pseudomonas aeruginosa P352; type: functional
[7] = system: Pseudomonas aeruginosa; experiment: Ratio of mutant prevention concentration to minimum Inhibitory concentration for Pseudomonas aeruginosa P340; type: functional
[8] = system: Pseudomonas aeruginosa; experiment: Ratio of mutant prevention concentration to minimum Inhibitory concentration for Pseudomonas aeruginosa P370; type: functional
[9] = system: Acinetobacter baumannii; experiment: Ratio of mutant prevention concentration to minimum Inhibitory concentration for Acinetobacter baumannii A848; type: functional
[10] = system: Acinetobacter baumannii; experiment: Ratio of mutant prevention concentration to minimum Inhibitory concentration for Acinetobacter baumannii A864; type: functional
[11] = system: Acinetobacter baumannii; experiment: Ratio of mutant prevention concentration to minimum Inhibitory concentration for Acinetobacter baumannii A912; type: functional
[12] = system: Acinetobacter baumannii; experiment: Ratio of mutant prevention concentration to minimum Inhibitory concentration for Acinetobacter baumannii A908; type: functional
[13] = system: Acinetobacter baumannii; experiment: Ratio of mutant prevention concentration to minimum Inhibitory concentration for Acinetobacter baumannii A931; type: functional
[14] = system: Acinetobacter baumannii; experiment: Ratio of mutant prevention concentration to minimum Inhibitory concentration for Acinetobacter baumannii A929; type: functional
[15] = system: Acinetobacter baumannii; experiment: Ratio of mutant prevention concentration to minimum Inhibitory concentration for Acinetobacter baumannii A901; type: functional
[16] = system: Acinetobacter baumannii; experiment: Ratio of mutant prevention concentration to minimum Inhibitory concentration for Acinetobacter baumannii A903; type: functional
[17] = system: Pseudomonas aeruginosa; experiment: Ratio of mutant prevention concentration to minimum Inhibitory concentration for Pseudomonas aeruginosa P332; type: functional
[18] = system: Acinetobacter baumannii; experiment: Antibacterial activity against Acinetobacter baumannii A931 after 24 hrs by agar dilution method; type: functional; conditions: A931, 24 h
[19] = system: Acinetobacter baumannii; experiment: Antibacterial activity against Acinetobacter baumannii A885 after 24 hrs by agar dilution method; type: functional; conditions: A885, 24 h
[20] = system: Escherichia coli; experiment: Antibacterial activity against beta-lactamase-negative Escherichia coli E347 after 24 hrs by agar dilution method; conditions: E347, 24 h
[21] = system: Escherichia coli; experiment: Antibacterial activity against beta-lactamase-positive ESBL-negative Escherichia coli E412 after 24 hrs by agar dilution method; conditions: E412, 24 h
[22] = system: Escherichia coli; experiment: Antibacterial activity against beta-lactamase-negative Escherichia coli E425 after 24 hrs by agar dilution method; conditions: E425, 24 h
[23] = system: Escherichia coli; experiment: Antibacterial activity against beta-lactamase-positive ESBL-positive Escherichia coli E450 after 24 hrs by agar dilution method; conditions: E450, 24 h
[24] = system: Escherichia coli; experiment: Antibacterial activity against beta-lactamase-positive ESBL-positive Escherichia coli E452 after 24 hrs by agar dilution method; conditions: E452, 24 h
[25] = system: Escherichia coli; experiment: Antibacterial activity against beta-lactamase-positive ESBL-positive Escherichia coli E459 after 24 hrs by agar dilution method; conditions: E459, 24 h
[26] = system: Escherichia coli; experiment: Antibacterial activity against beta-lactamase-positive ESBL-positive Escherichia coli E451 after 24 hrs by agar dilution method; conditions: E451, 24 h
[27] = system: Escherichia coli; experiment: Antibacterial activity against beta-lactamase-positive ESBL-positive Escherichia coli E460 after 24 hrs by agar dilution method; conditions: E460, 24 h
[28] = system: Escherichia coli; experiment: Antibacterial activity against beta-lactamase-positive ESBL-positive Escherichia coli E465 after 24 hrs by agar dilution method; conditions: E465, 24 h
[29] = system: Escherichia coli; experiment: Antibacterial activity against beta-lactamase-positive ESBL-negative Escherichia coli E484 after 24 hrs by agar dilution method; type: functional; conditions: E484, 24 h
[30] = system: Klebsiella pneumoniae; experiment: Antibacterial activity against beta-lactamase-negative Klebsiella pneumoniae E358 after 24 hrs by agar dilution method; type: functional; conditions: E358, 24 h
[31] = system: Klebsiella pneumoniae; experiment: Antibacterial activity against beta-lactamase-negative Klebsiella pneumoniae E360 after 24 hrs by agar dilution method; type: functional; conditions: E360, 24 h
[32] = system: Klebsiella pneumoniae; experiment: Antibacterial activity against beta-lactamase-positive ESBL-positive Klebsiella pneumoniae E476 after 24 hrs by agar dilution method; type: functional; conditions: E476, 24 h
[33] = system: Klebsiella pneumoniae; experiment: Antibacterial activity against beta-lactamase-positive ESBL-positive Klebsiella pneumoniae E475 after 24 hrs by agar dilution method; type: functional; conditions: E475, 24 h
[34] = system: Klebsiella pneumoniae; experiment: Antibacterial activity against beta-lactamase-positive ESBL-negative Klebsiella pneumoniae E473 after 24 hrs by agar dilution method; type: functional; conditions: E473, 24 h
[35] = system: Klebsiella pneumoniae; experiment: Antibacterial activity against beta-lactamase-positive ESBL-negative Klebsiella pneumoniae E477 after 24 hrs by agar dilution method; type: functional; conditions: E477, 24 h
[36] = system: Klebsiella pneumoniae; experiment: Antibacterial activity against beta-lactamase-negative Klebsiella pneumoniae E417 after 24 hrs by agar dilution method; type: functional; conditions: E417, 24 h
[37] = system: Klebsiella pneumoniae; experiment: Antibacterial activity against beta-lactamase-positive ESBL-positive Klebsiella pneumoniae E457 after 24 hrs by agar dilution method; type: functional; conditions: E457, 24 h
[38] = system: Klebsiella pneumoniae; experiment: Antibacterial activity against beta-lactamase-positive ESBL-negative Klebsiella pneumoniae E507 after 24 hrs by agar dilution method; type: functional; conditions: E507, 24 h
[39] = system: Pseudomonas aeruginosa; experiment: Antibacterial activity against Pseudomonas aeruginosa P356 after 24 hrs by agar dilution method; conditions: P356, 24 h
[40] = system: Pseudomonas aeruginosa; experiment: Antibacterial activity against Pseudomonas aeruginosa P369 after 24 hrs by agar dilution method; conditions: P369, 24 h
[41] = system: Pseudomonas aeruginosa; experiment: Antibacterial activity against Pseudomonas aeruginosa P335 after 24 hrs by agar dilution method; conditions: P335, 24 h
[42] = system: Pseudomonas aeruginosa; experiment: Antibacterial activity against Pseudomonas aeruginosa P319 after 24 hrs by agar dilution method; type: functional; conditions: P319, 24 h
[43] = system: Pseudomonas aeruginosa; experiment: Antibacterial activity against Pseudomonas aeruginosa P322 after 24 hrs by agar dilution method; conditions: P322, 24 h
[44] = system: Pseudomonas aeruginosa; experiment: Antibacterial activity against Pseudomonas aeruginosa P337 after 24 hrs by agar dilution method; conditions: P337, 24 h
[45] = system: Pseudomonas aeruginosa; experiment: Antibacterial activity against Pseudomonas aeruginosa P340 after 24 hrs by agar dilution method; conditions: P340, 24 h
[46] = system: Pseudomonas aeruginosa; experiment: Antibacterial activity against Pseudomonas aeruginosa P370 after 24 hrs by agar dilution method; conditions: P370, 24 h
[47] = system: Pseudomonas aeruginosa; experiment: Antibacterial activity against Pseudomonas aeruginosa P358 after 24 hrs by agar dilution method; type: functional; conditions: P358, 24 h
[48] = system: Acinetobacter baumannii; experiment: Antibacterial activity against Acinetobacter baumannii A850 after 24 hrs by agar dilution method; type: functional; conditions: A850, 24 h
[49] = system: Acinetobacter baumannii; experiment: Antibacterial activity against Acinetobacter baumannii A864 after 24 hrs by agar dilution method; type: functional; conditions: A864, 24 h
[50] = system: Acinetobacter baumannii; experiment: Antibacterial activity against Acinetobacter baumannii A865 after 24 hrs by agar dilution method; type: functional; conditions: A865, 24 h
[51] = system: Acinetobacter baumannii; experiment: Antibacterial activity against Acinetobacter baumannii A851 after 24 hrs by agar dilution method; type: functional; conditions: A851, 24 h
[52] = system: Acinetobacter baumannii; experiment: Antibacterial activity against Acinetobacter baumannii A911 after 24 hrs by agar dilution method; type: functional; conditions: A911, 24 h
[53] = system: Acinetobacter baumannii; experiment: Antibacterial activity against Acinetobacter baumannii A892 after 24 hrs by agar dilution method; type: functional; conditions: A892, 24 h
[54] = system: Acinetobacter baumannii; experiment: Antibacterial activity against Acinetobacter baumannii A849 after 24 hrs by agar dilution method; type: functional; conditions: A849, 24 h

How did the Ratio [1] turn out when `C[C@@H](O)[C@H]1C(=O)N2C(C(=O)O)=C(S[C@@H]3CN[C@H](CNS(N)(=O)=O)C3)[C@H](C)[C@H]12` [DORIPENEM] was run?
The Ratio was 8.

What about the Ratio [2] of the same molecule?
Its Ratio is >8.

And the Ratio [3]?
The Ratio was 8.

And the Ratio [4]?
The Ratio was >16.

And the Ratio [5]?
Its Ratio is 16.

What about the Ratio [6] of the same molecule?
The Ratio was 2.

And the Ratio [7]?
The Ratio was 8.

And the Ratio [8]?
The Ratio was 16.

What about the Ratio [9] of the same molecule?
Its Ratio is 2.

What about the Ratio [10] of the same molecule?
The Ratio was 8.

And the Ratio [11]?
Its Ratio is 2.

And the Ratio [12]?
Its Ratio is 2.

What about the Ratio [13] of the same molecule?
The Ratio was 2.

And the Ratio [14]?
Its Ratio is 2.

And the Ratio [15]?
Its Ratio is 2.

What about the Ratio [16] of the same molecule?
Its Ratio is 4.

What about the Ratio [17] of the same molecule?
The Ratio was >16.

What does the source list for `C[C@@H](O)[C@H]1C(=O)N2C(C(=O)O)=C(SCCNC=N)C[C@H]12` [IMIPENEM ANHYDROUS]?
MIC [18]: 0.5 µg/mL (≈ 1.67 µM); MIC [19]: 2 µg/mL (≈ 6.68 µM); MIC [20]: 0.25 µg/mL (≈ 0.835 µM); MIC [21]: 0.25 µg/mL (≈ 0.835 µM); MIC [22]: 0.25 µg/mL (≈ 0.835 µM); MIC [23]: 0.125 µg/mL (≈ 0.418 µM); MIC [24]: 0.125 µg/mL (≈ 0.418 µM); MIC [25]: 0.25 µg/mL (≈ 0.835 µM); MIC [26]: 0.25 µg/mL (≈ 0.835 µM); MIC [27]: 0.25 µg/mL (≈ 0.835 µM); MIC [28]: 0.25 µg/mL (≈ 0.835 µM); MIC [29]: 4 µg/mL (≈ 13.4 µM); MIC [30]: 0.25 µg/mL (≈ 0.835 µM); MIC [31]: 0.25 µg/mL (≈ 0.835 µM); MIC [32]: 8 µg/mL (≈ 26.7 µM); MIC [33]: 4 µg/mL (≈ 13.4 µM); MIC [34]: 4 µg/mL (≈ 13.4 µM); MIC [35]: 4 µg/mL (≈ 13.4 µM); MIC [36]: 0.5 µg/mL (≈ 1.67 µM); MIC [37]: 0.25 µg/mL (≈ 0.835 µM); MIC [38]: 2 µg/mL (≈ 6.68 µM); MIC [39]: 2 µg/mL (≈ 6.68 µM); MIC [40]: 2 µg/mL (≈ 6.68 µM); MIC [41]: 1 µg/mL (≈ 3.34 µM); MIC [42]: 8 µg/mL (≈ 26.7 µM); MIC [43]: 4 µg/mL (≈ 13.4 µM); MIC [44]: 2 µg/mL (≈ 6.68 µM); MIC [45]: 0.5 µg/mL (≈ 1.67 µM); MIC [46]: 1 µg/mL (≈ 3.34 µM); MIC [47]: 32 µg/mL (≈ 107 µM); MIC [48]: 4 µg/mL (≈ 13.4 µM); MIC [49]: 8 µg/mL (≈ 26.7 µM); MIC [50]: 8 µg/mL (≈ 26.7 µM); MIC [51]: 2 µg/mL (≈ 6.68 µM); MIC [52]: 2 µg/mL (≈ 6.68 µM); MIC [53]: 4 µg/mL (≈ 13.4 µM); MIC [54]: 4 µg/mL (≈ 13.4 µM)
